According to patent US6586006B2, “Solid delivery systems for controlled release of molecules incorporated therein and methods of making same” (Elan Drug Delivery Limited, priority 1994, dated 2003):
Values belong to the molecule of their own block, whether it stands above or below them.

Columns and labels:
Type in all cases: physicochemical
[1] = Glass transition temperature (Tg) by thermal analysis (DSC)
Description: In general, the tendency to crystallize, from a cooling melt or with reducing solvent, is low. Both devitrification and the fluidity of the melt at temperatures close to Tg, can be controlled by modifiers such as other derivative sugars and certain organic actives. The following two tables, generated as described in the Examples presented below, provide Tg and melting temperature data for a variety of HDCs suitable for use, either alone, or in a composite glass, herein.
Dissolution of synthetic corticosteroid XPDO (described below) into a TOAC melt and quenching to form the vitreous solid dose delivery system was achieved. By looking at the release of MB9 into aqueous solution, these experiments tested the compatibility of the steroid within the glass, subsequent recovery of the steroid and studied the effect that XPDO has on the properties of the delivery system formed looking at the release of MB9 into aqueous solution. TOAC (3.21 g) was pre-melted at 150° C., before being quenched to glass. The glass was finely ground with XPDO (0.15 g) before being remelted. The clear melt was again quenched to yield the composite HDC/active glass. Thermal analysis was carried out on a Rheometric Scientific Differential Scanning Calorimeter (DSC) at a heating rate of 10°/min under a nitrogen atmosphere. The following samples were prepared:
Studies were performed using the synthetic corticosteroid XPDO dissolved in DCM. The solution was spray dried in a Buchi B-191 spray drier, using an inlet temperature of 40° C. […] XPDO was incorporated at 20 wt %. The powder was completely amorphous as confirmed by thermal analysis (Tg=46° C.).

[2] = Controlled release of encapsulated MB9 dye from HDC glass beads/discs; conditions: FIG. 11
Procedure: In the following experiments, the delivery system was preformulated, whether as a single material, or as a mixed composition. This was carried out by intimately grinding the component HDCs together, followed by careful, controlled melting in a furnace, between 120-140° C. and with normal atmosphere to form melts. The melts were quenched to glass by pouring over a brass block. This glass was then finely ground.
MB9 dye (1 or 5 wt %) was mixed with the ground glass prior to re-melting at 140° C. The melt was quenched to form small glass beads (2.5 mm diameter) which were used in controlled release experiments.
Controlled release of encapsulated dye was monitored by suspending three such beads in 25 or 50 ml of deionized water or PBS solution at ambient temperatures (27-30° C.) or at 37° C., as indicated. The media were undisturbed, except for periodic stirring and were replaced at set intervals with fresh media (generally at 72 hr intervals). Both single HDC glasses and composite HDC glasses were formed. […] The use of other HDCs as glass modifiers in the composite HDC formulations enable the tailoring of the glasses formed to yield the release characteristics desired.
In FIG. 8, the results were obtained from TOAC glass discs (6 mm×2.5 mm) with MB9 dye evenly dispersed therein at 2 wt %. Release was controlled at 25° C. with gentle stirring and media changes at regular intervals. Note the linear release of MB9 dye over a 55 day period. The results presented in FIG. 8 indicate that a pure HDC vitreous delivery vehicle system gives zero-order release rates of guest substances. The results presented in FIGS. 9-14 show variation on release rates by changing the ratios of different HDCs in the delivery systems, changing the carbohydrate backbone length and by changing the nature of the derivative on the carbohydrate backbone. In each instance it is clear that the HDC delivery systems allow a wide range of release rates that can be tailored to the guest substance and the delivery thereof.

[3] = Water resistance and dye release of carboxylate, HDC or plastic coated/coformulated systems
Procedure: These particles were coated by adding them to a saturated solution of zinc palmitate (ZnC16) in toluene and cooling from 60° C. to 30° C. This deposited a layer of ZnC16 on the particles which were then filtered under vacuum to remove the excess ZnC16, washed with acetone and air-dried.
A fine amorphous film (100-200 μm thickness) was formed by casting on silicate glass slides and evaporating off the solvent in a warm air-stream.
Amorphous films were also formed from calcium neodecanoate dissolved in chloroform (0.5 g/10 ml) as described above.
Films of glucose glass incorporating 1 wt % MB9 were formulated by quenching from the melt. These films were coated with thin (100 μm thickness) amorphous metal carboxylate films by evaporation of solution of the carboxylate in chloroform (0.5 g/10 ml). The metal carboxylates used were aluminum hexanoate and octanoate, calcium neodecanoate and magnesium isostearate and neodecanoate. Dissolution of the films was monitored by release of dye into distilled water.

[4] = Weight loss and dye release of glucose pentaacetate glass discs in water
Procedure: Another glass disc of similar dimensions was prepared from α-D-glucose pentaacetate and placed in 1 l of water, which was replaced daily. After 7 days, the glass had lost 20% of its original weight. The release rate of the dye was higher in the first day as the release happened mainly from the surface of the glass disc.

[5] = Enzyme activity after exposure to acetone, dried with or without trehalose; conditions: dried with 50% trehalose versus without, FIGS. 5A and 5B
Procedure: A 0.1 mg/ml horseradish peroxidase solution or a 1 mg/ml alkaline phosphatase/4 mg/ml bovine serum albumin solution was dried in an FTS Systems freeze drier with or without 50% trehalose. The drier was used as a vacuum drier and the mixtures dried without freezing. Four times the volume of solvent was added and the solution was allowed to evaporate to dryness. The contents were redissolved in 5 milliliters of water, and enzyme activity was assessed, in serial dilution, by commercial ‘kit’ reagents.

[6] = Resistance of glasses to devitrification on exposure to relative humidity
Procedure: Glasses were made by evaporating DCM on a hotplate set at 65° C. from a 25% solutions of TOAC (50% solutions often deposited crystals in the pipette tip). Drying was carried out for 2 hr to be certain of complete dryness. Uniform glasses were produced by using an Eppendorf-type pipette to deliver 100 μl to a slide recently placed on the hotplate and then removing about 50 μl by using the clear/expel volume of the pipette.
XPDO was therefore incorporated into a TOAC glass by dissolving both crystalline TOAC and XPDO in DCM and evaporating the solvent at 70° C. on a hotplate. XPDO was used in proportions of 10% and 20% of total solids in the final TOAC glass.
The resulting glasses were tested for their utility as controlled release matrices in two ways. First, they were assessed for their ability to resist devitrification on exposure to high RH at RT. Second, they were immersed in water or phosphate-buffered saline (PBS) to study their solubility and rate of erosion by surface recrystallization.

[7] = Phycoerythrin fluorescence (functional activity) after solvents, heat or processing
Procedure: Glasses were formed by drying 20% solutions of either trehalose, lactitol, palatinit or GPS, containing MWPB and 1 mg/ml of the fluorescent algal protein phycoerythrin under vacuum (80 mTorr) for 16 hrs. The glasses were ground in a domestic coffee mill to yield a coarse powder which was used to fill the spinning head of a Kando K1 Kandy Floss cotton candy machine (GB Patent No. 1533012). The motor was then switched on and the powdered sugar glass heated at element settings between 5 and 9. Residence time in the spinning head was 2-10 min and a continuous process was maintained by constantly topping up the head.
A 400 μg/ml phycoerythrin solution was freeze-dried in a Labconco freeze-drier with or without 20% trehalose. The dried protein powder was exposed to a number of organic solvents for 72 hrs.
A 400 μg/ml phycoerythrin solution was freeze-dried in the FTS drier with or without 20% trehalose. […]

[8] = freeze-dried powder in pyridine

- Tg/° C. ([1]; single HDC glasses (Table 1)): 65 °C
Molecule: CC(=O)OC[C@H]1O[C@@H](O[C@H]2[C@H](OC(C)=O)[C@@H](OC(C)=O)C(OC(C)=O)O[C@@H]2COC(C)=O)[C@H](OC(C)=O)[C@@H](OC(C)=O)[C@@H]1OC(C)=O (stereo partly shown) [COAC, cellobiose octaacetate]

- Tg/° C. ([1]; single HDC glasses (Table 1)): 55 °C
- Tg/° C. ([1]; single and composite HDC glasses, mole ratios of HDCs in glass (Table 2)): 55 °C
- MB9 release profile ([2]; TOAC/RUDA glass spheres into PBS): biphasic release rate
- initial fast release of MB9 dye ([2]; glass spheres into PBS, in 5 days): about 60%
Molecule: CC(=O)OCC1OC(OCC2OC(OC3(COC(C)=O)OC(COC(C)=O)C(OC(C)=O)C3OC(C)=O)C(OC(C)=O)C(OC(C)=O)C2OC(C)=O)C(OC(C)=O)C(OC(C)=O)C1OC(C)=O (stereo not shown) [RUDA, raffinose undecaacetate]

Molecule: magnesium isostearate
- delay of dye release ([3]; glucose glass film with 1 wt % MB9 coated with 100 μm metal carboxylate film, distilled water): 10 days

- Tg/° C. ([1]; single HDC glasses (Table 1)): 17 °C
- solubility of glass in water [4]: poorly soluble in water
- loss of original weight ([4]; glass disc 20 mm diameter, 2.5 mm thick, flowing water, 10 days): about 33%
Molecule: CC(=O)OC[C@H]1O[C@@H](OC(C)=O)[C@H](OC(C)=O)[C@@H](OC(C)=O)[C@@H]1OC(C)=O [β-GPAC, β-glucose pentaacetate]

- Tg/° C. ([1]; single HDC glasses (Table 1)): 14 °C
- loss of original weight ([4]; glass disc in 1 l of water replaced daily, after 7 days): 20%
- rate of release of encapsulated Acid Blue dye ([4]; glass disc in water, FIG. 7): quite constant
Molecule: CC(=O)OC[C@H]1O[C@H](OC(C)=O)[C@H](OC(C)=O)[C@@H](OC(C)=O)[C@@H]1OC(C)=O [α-GPAC, α-glucose pentaacetate]

- Tg/° C. ([1]; single HDC glasses (Table 1)): −10 °C
Molecule: CCCCCCCCO[C@@H]1O[C@H](COC(C)=O)[C@@H](OC(C)=O)[C@H](OC(C)=O)[C@H]1OC(C)=O [OGTA, 1-0-Octyl-β-D-glucose tetraacetate]

Molecule: horseradish peroxidase
- resistance of enzyme activity to acetone [5]: more resistant to acetone

- Tg/° C. ([1]; single HDC glasses (Table 1)): 25 °C
Molecule: CC(=O)OC[C@H]1O[C@@](COC(C)=O)(O[C@H]2O[C@H](COC(C)=O)[C@@H](OC(C)=O)[C@H](OC(C)=O)[C@H]2OC(C)=O)[C@@H](OC(C)=O)[C@@H]1OC(C)=O [SOAC, sucrose octaacetate]

- Tg/° C. ([1]; single HDC glasses (Table 1)): 3 °C
Molecule: CCC(=O)OCC1OC(OC2OC(COC(=O)CC)C(OC(=O)CC)C(OC(=O)CC)C2OC(=O)CC)C(OC(=O)CC)C(OC(=O)CC)C1OC(=O)CC (stereo not shown) [TOPR, trehalose octapropanoate]
- devitrification at RH from 75% to 95% ([6]; thin glass films and quenched disks, RT, overnight exposure): very susceptible to devitrification at high RH

Molecule: Aluminum hexanoate
- devitrification of film during dye release ([3]; 100-200 μm film, 1 wt % MB9, distilled water, 5 hr): No devitrification

Molecule: alkaline phosphatase
- resistance of enzyme activity to acetone [5]: more resistant to acetone

Molecule: OC[C@H]1O[C@H](O[C@H]2O[C@H](CO)[C@@H](O)[C@H](O)[C@H]2O)[C@H](O)[C@@H](O)[C@@H]1O [Trehalose, α-D-glucopyranosyl-α-D-glucopyranoside]
- recrystallization of glass on storage ([6]; trehalose glass from evaporating water from 50% trehalose solution): gradually recrystallized over a period of several weeks

Molecule: phycoerythrin
- fluorescence after exposure to organic solvent ([7]; dimethylsulfoxide, powder solubilized): remained fluorescent
- functional activity after storage at 100° C. ([7]; dried in trehalose, one month): no detectable loss of functional activity
- time by which fluorescence was lost [7, 8]: ≤ 72 h
- time fluorescence remained [7, 8]: 24 to 48 h
- fluorescence after exposure to organic solvent ([7]; freeze-dried with 20% trehalose, acetone, acetonitrile chloroform and methanol, 72 hrs): remained fluorescent
- biological activity as assessed by fluorescence ([7]; in spun sugar glass microneedles): retention of biological activity
- biological functionality by ability to fluoresce ([7]; trehalose glass powder co-melted into carboxylate glass at 95° C.): retained its biological functionality
- fluorescence in carboxylate glass formed by evaporation ([7]; trehalose glass powder in 1:1 sodium octanoate/zinc ethylhexanoate, chloroform): remained fluorescent
- fluorescence in perspex block ([7]; trehalose glass powder in perspex from chloroform): remained fluorescent

Molecule: zinc palmitate [ZnC16]
- wetting of coated powder in water ([3]; spray-dried trehalose/calcium lactate/MB9 particles coated with ZnC16): remained unwetted in water for at least three days

Molecule: calcium neodecanoate
- dye release relative to film dissolution ([3]; film with MB9 in distilled water, 24 hr, Ca2+ by atomic adsorption spectroscopy): followed the dissolution of the films
